Reference: ChEMBL document CHEMBL6109130, “PaAP-Activatable NIR Probe for Diagnosing, Imaging, and Discovering Small-Molecule Therapeutics against Implant-Associated Biofilm Infections” (J Med Chem, 2025)
Activity calls are given as the source filed them. No cut-off for these calls is given here.

Key:
[1] = Cytotoxicity against human HT-1080 cells assessed as cell viability at 25 uM measured after 24 hrs by CCK-8 assay relative to control; assay type: toxicity, cell-based; settings: read-out: Activity
[2] = Cytotoxicity against human HepG2 cells assessed as cell viability at 25 uM measured after 24 hrs by CCK-8 assay relative to control; assay type: toxicity, cell-based; settings: read-out: Activity
Pseudomonas aeruginosa [3] = experiment: Antimicrobial activity against Pseudomonas aeruginosa ATCC27853 assessed as viability at 50 uM; assay type: functional, organism-based
[4] = Cytotoxicity against human A-375 cells assessed as cell viability at 25 uM measured after 24 hrs by CCK-8 assay relative to control; assay type: toxicity, cell-based; settings: read-out: Activity
[5] = Cytotoxicity against mouse BV-2 cells assessed as cell viability at 25 uM measured after 24 hrs by CCK-8 assay relative to control; assay type: toxicity, cell-based; settings: read-out: Activity
Pseudomonas aeruginosa [6] = experiment: Induction of antibiotic susceptibility of Pseudomonas aeruginosa PAO1 assessed as reduction in tobramycin resistance by measuring bio-film fluorescence image at 50 uM incubated for 2 days followed by treated with tobramycin for 24 hrs by Calcein-AM/PI dual staining based Confocal microscopy; assay type: functional, organism-based; settings: time 3.0 day
Pseudomonas aeruginosa [7] = experiment: In vivo anti-biofilm activity against pre colonized mature Pseudomonas aeruginosa PAO1 subcutaneously transplanted catheter in mouse model assessed as reduction in fluorescence signal using Hcy-NEO-Leu probe relative to control group; assay type: functional
Klebsiella pneumoniae = experiment: Antimicrobial activity against Klebsiella pneumonia ATCC 700603 assessed as viability at 0.39 to 100 uM; assay type: functional, organism-based; settings: dose 0.39-100 µM
[8] = target: T1, Aminopeptidase (Pseudomonas aeruginosa) (UniProt Q9HZQ8); experiment: Inhibition of aminopeptidase (PaAP) in Pseudomonas aeruginosa PAO1 biofilm assessed as Hcy-NEO-Leu mediated fluorescence at 50 uM measured after 1 hr measured after 48 hrs by CLSM imaging based assay
T1 sequence (whole entry): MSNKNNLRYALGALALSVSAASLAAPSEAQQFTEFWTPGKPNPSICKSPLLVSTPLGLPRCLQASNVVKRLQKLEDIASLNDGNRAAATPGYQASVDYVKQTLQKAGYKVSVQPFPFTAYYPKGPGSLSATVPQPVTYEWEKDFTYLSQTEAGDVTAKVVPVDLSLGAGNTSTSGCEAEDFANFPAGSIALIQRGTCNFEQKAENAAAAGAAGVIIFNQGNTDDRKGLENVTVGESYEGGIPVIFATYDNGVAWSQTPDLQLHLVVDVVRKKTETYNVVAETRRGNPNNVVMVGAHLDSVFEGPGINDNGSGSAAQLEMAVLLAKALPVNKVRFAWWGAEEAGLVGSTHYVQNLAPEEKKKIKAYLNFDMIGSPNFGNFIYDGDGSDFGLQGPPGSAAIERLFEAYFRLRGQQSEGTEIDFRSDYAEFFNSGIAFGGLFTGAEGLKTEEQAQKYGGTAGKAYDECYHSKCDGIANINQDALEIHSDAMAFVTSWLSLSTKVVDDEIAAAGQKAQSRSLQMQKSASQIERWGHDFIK

Pseudomonas aeruginosa [9] = experiment: Anti-biofilm activity against Pseudomonas aeruginosa PAO1 biofilm exposed to RAW264.7 cells assessed as increase in bacterial uptake by macrophages at 50 uM measured after 12 hrs by LB plate assay; assay type: functional, organism-based
Aminopeptidase = target: T2, Aminopeptidase (Pseudomonas aeruginosa, UniProt Q9HZQ8); experiment: Inhibition of Pseudomonas aeruginosa aminopeptidase (PaAP) assessed as decrease in fluorescent intensity using fluorescent probe Hcy-NEO-Leu measured after 3 hrs
T2 sequence (Q9HZQ8 whole entry): T1 sequence (whole entry)

Pseudomonas aeruginosa [10] = experiment: Anti-biofilm activity against Pseudomonas aeruginosa PAO1 deltaPaAP biofilm exposed to RAW264.7 cells assessed as increase in bacterial uptake by macrophages at 50 uM measured after 12 hrs by LB plate assay; assay type: functional, organism-based
Pseudomonas aeruginosa [11] = experiment: Anti-biofilm activity against Pseudomonas aeruginosa PAO1 on nail (implant surface) using Hcy-NEO-Leu probe at 50 uM by fluorescence imaging analysis; assay type: functional, organism-based
HK-2 = experiment: Cytotoxicity against human HK2 cells assessed as cell viability measured after 24 hrs by CCK-8 assay; assay type: functional, cell-based
Acinetobacter baumannii = experiment: Antimicrobial activity against Acinetobacter baumannii ATCC19606 assessed as viability at 0.39 to 100 uM; assay type: functional, organism-based; settings: dose 0.39-100 µM
Pseudomonas aeruginosa [12] = experiment: Anti-biofilm activity against Pseudomonas aeruginosa PAO1 at 50 uM by crystal violet staining based optical microscopy relative to control; assay type: functional
Pseudomonas aeruginosa [13] = experiment: Antimicrobial activity against Pseudomonas aeruginosa PAO1 assessed as viability at 0.39 to 100 uM; assay type: functional, organism-based; settings: dose 0.39-100 µM
A-375 = experiment: Cytotoxicity against human A-375 cells assessed as cell viability measured after 24 hrs by CCK-8 assay; assay type: functional, cell-based
Enterococcus faecium = experiment: Antimicrobial activity against Enterococcus faecium ATCC29212 assessed as viability at 0.39 to 100 uM; assay type: functional, organism-based; settings: dose 0.39-100 µM
[14] = target: T1, Aminopeptidase (Pseudomonas aeruginosa); experiment: Inhibition of Pseudomonas aeruginosa aminopeptidase (PaAP) assessed as decrease in fluorescent intensity using fluorescent probe Hcy-NEO-Leu at 1 mM measured after 3 hrs
HepG2 = experiment: Cytotoxicity against human HepG2 cells assessed as cell viability measured after 24 hrs by CCK-8 assay; assay type: functional, cell-based
[15] = target: T1, Aminopeptidase (Pseudomonas aeruginosa); experiment: Inhibition of aminopeptidase (PaAP) in wild type Pseudomonas aeruginosa assessed as decrease in fluorescent intensity using fluorescent probe Hcy-NEO-Leu at 50 uM measured after 3 hrs
[16] = target: T1, Aminopeptidase (Pseudomonas aeruginosa); experiment: Inhibition of aminopeptidase (PaAP) in Pseudomonas aeruginosa delta(PaAP) assessed as decrease in fluorescent intensity using fluorescent probe Hcy-NEO-Leu at 50 uM measured after 3 hrs
Staphylococcus aureus = experiment: Antimicrobial activity against Staphylococcus aureus ATCC25923 assessed as viability at 0.39 to 100 uM; assay type: functional, organism-based; settings: dose 0.39-100 µM
Pseudomonas aeruginosa [17] = experiment: Anti-biofilm activity against Pseudomonas aeruginosa PAO1 on catheter (implant surface) using Hcy-NEO-Leu probe at 50 uM by fluorescence imaging analysis; assay type: functional, organism-based
Pseudomonas aeruginosa [18] = experiment: Anti-biofilm activity against Pseudomonas aeruginosa PAO1 on surgical suture (implant surface) using Hcy-NEO-Leu probe at 50 uM by fluorescence imaging analysis; assay type: functional, organism-based
BV-2 = experiment: Cytotoxicity against mouse BV-2 cells assessed as cell viability measured after 24 hrs by CCK-8 assay; assay type: functional, cell-based
Pseudomonas aeruginosa [19] = experiment: In vivo anti-biofilm activity against pre colonized mature Pseudomonas aeruginosa PAO1 subcutaneously transplanted catheter in mouse model assessed as reduction in bacterial CFU using Hcy-NEO-Leu probe; assay type: functional, organism-based
Pseudomonas aeruginosa [20] = experiment: Reduction in aminopeptidase (PaAP) expression level in Pseudomonas aeruginosa PAO1 at 50 to 200 uM by ELISA relative to control; assay type: functional; settings: dose 50-200 µM
[21] = target: T1, Aminopeptidase (Pseudomonas aeruginosa); experiment: Inhibition of aminopeptidase (PaAP) in Pseudomonas aeruginosa PAO1 biofilm assessed as Hcy-NEO-Leu mediated fluorescence at 1 mM measured after 1 hr measured after 48 hrs by CLSM imaging based assay

SMILES: CC(C)C[C@H](N)C(=O)Nc1ccc(COc2ccc3c(c2)OC2=C(/C=C/C4=[N+](CCCCCC(=O)NC[C@H]5O[C@@H](O[C@@H]6[C@@H](O)[C@H](N)C[C@H](N)[C@H]6O[C@H]6O[C@H](CN)[C@@H](O)[C@H](O)[C@H]6N)[C@H](O)[C@@H]5O[C@H]5O[C@@H](CN)[C@@H](O)[C@H](O)[C@H]5N)c5ccccc5C4(C)C)CCCC2=C3)cc1
- viability at 24 h, 25 µM [1]: > 80%
- viability at 24 h, 25 µM [2]: > 80%
- Activity (Pseudomonas aeruginosa [3]): inactive
- viability at 24 h, 25 µM [4]: > 80%
- viability at 24 h, 25 µM [5]: > 80%

SMILES: O[C@H]1[C@H]2c3cc4c(cc3CN3CCC(=C[C@@H]1OC(=S)Nc1ccccc1)[C@H]23)OCO4
- Activity (Pseudomonas aeruginosa [6]): Active
- fold change (FC) (Pseudomonas aeruginosa [7]): 2.65
- Activity (Klebsiella pneumoniae): inactive
- inhibition [8]: Active
- Activity (Pseudomonas aeruginosa [9]): Active
- IC50 (Aminopeptidase): 36.8 µM
- Activity (Pseudomonas aeruginosa [10]): Active
- Activity (Pseudomonas aeruginosa [11]): Active
- Activity (HK-2): inactive
- Activity (Acinetobacter baumannii): inactive
- Activity (Pseudomonas aeruginosa [12]): <50%
- Activity (Pseudomonas aeruginosa [13]): inactive
- Activity (A-375): inactive
- Activity (Enterococcus faecium): inactive
- inhibition [14]: Active
- Activity (HepG2): inactive
- inhibition [15]: Active
- inhibition [16]: inactive
- Activity (Staphylococcus aureus): inactive
- Activity (Pseudomonas aeruginosa [17]): Active
- Activity (Pseudomonas aeruginosa [18]): Active
- Activity (BV-2): inactive
- Activity (Pseudomonas aeruginosa [19]): Active
- Activity (Pseudomonas aeruginosa [20]): Active

SMILES: O=C(Nc1ccc(Cl)cc1)O[C@H]1[C@H]2c3cc4c(cc3CN3CCC(=C[C@@H]1O)[C@H]23)OCO4
- inhibition [14]: Active

SMILES: O=C(O)CCNC(=O)c1ccc(/N=N/c2ccc(O)c(C(=O)O)c2)cc1 [BALSALAZIDE]
- IC50 (Aminopeptidase): 39.2 µM

SMILES: O=C1C=C2CCN3Cc4cc5c(cc4[C@H]([C@@H]1O)[C@@H]23)OCO5
- inhibition [14]: Active

SMILES: CC(C)C[C@H](NC(=O)[C@@H](O)[C@H](N)Cc1ccccc1)C(=O)O [UBENIMEX]
- IC50 (Aminopeptidase): 521 µM
- inhibition [21]: 100%

SMILES: O[C@H]1[C@H]2c3cc4c(cc3CN3CCC(=C[C@@H]1O)[C@H]23)OCO4
- inhibition [14]: Active

SMILES: O=C1O[C@H]2[C@H]3c4cc5c(cc4CN4CCC(=C[C@H]2N1c1ccc(Cl)cc1)[C@H]34)OCO5
- inhibition [14]: Active

SMILES: CC(C)(C)[Si](C)(C)OC1CCC(N2C(=S)O[C@H]3[C@H]4c5cc6c(cc5CN5CCC(=C[C@H]32)[C@H]45)OCO6)CC1 (some centres not stated)
- inhibition [14]: Active

SMILES: S=C1O[C@H]2[C@H]3c4cc5c(cc4CN4CCC(=C[C@H]2N1c1cccnc1)[C@H]34)OCO5
- inhibition [14]: Active

SMILES: CC1(C)C(/C=C/C2=C3Oc4cc(O)ccc4C=C3CCC2)=[N+](CCCCCC(=O)NC[C@H]2O[C@@H](O[C@@H]3[C@@H](O)[C@H](N)C[C@H](N)[C@H]3O[C@H]3O[C@H](CN)[C@@H](O)[C@H](O)[C@H]3N)[C@H](O)[C@@H]2O[C@H]2O[C@@H](CN)[C@@H](O)[C@H](O)[C@H]2N)c2ccccc21
- viability at 24 h, 25 µM [1]: > 80%
- viability at 24 h, 25 µM [2]: > 80%
- Activity (Pseudomonas aeruginosa [3]): inactive
- viability at 24 h, 25 µM [4]: > 80%
- viability at 24 h, 25 µM [5]: > 80%

SMILES: O=C(COc1ccccc1)O[C@@H]1C(=O)C=C2CCN3Cc4cc5c(cc4[C@H]1[C@@H]23)OCO5
- inhibition [14]: Active

SMILES: O=C(CSc1ccc(F)cc1)O[C@@H]1C(=O)C=C2CCN3Cc4cc5c(cc4[C@H]1[C@@H]23)OCO5
- inhibition [14]: Active

SMILES: O=C(O[C@H]1[C@H]2c3cc4c(cc3CN3CCC(=C[C@@H]1O)[C@H]23)OCO4)C1CCCCC1
- inhibition [14]: Active

SMILES: O=C(NC1CCCCC1)O[C@H]1[C@H]2c3cc4c(cc3CN3CCC(=C[C@@H]1O)[C@H]23)OCO4
- inhibition [14]: Active
